Test results taken from patent US11236122B2, “Triterpene amine derivatives” (DFH THERAPEUTICS, priority 2018, dated 2022).
Where a name gives a salt, the structure may show the parent alone.

What was measured:
[1] = Cytotoxicity assay CellTitre-Blue, HEK-293T; type: cell-based; details: human, HEK-293T cells, read-out: Cytotoxicity CC50 HEK293T
Experimental: Cytotoxicity assays. Cytotoxicity assays were performed using the CellTitre-Blue Cell Viability Assay kit (Promega, USA) as per manufacturer's recommendations. HEK-293T and HUT-R5 cell lines were maintained in the presence of serial dilutions of the compounds for 4 days and treated with CellTitre-Blue reagent for 4 h at 37° C. The fluorescent signals were recorded at 530/25excision and 590/35emission using BioTek microplate reader. The 50% cytotoxicity concentrations (CC50s) were determined as the compound concentrations that reduced the fluorescent signals to 50% relative to DMSO only controls.

HIV-1 clade C K3016 = assay: Viral infectivity assay in TZM-bl cells (luciferase), K3016; type: cell-based; details: DMSO = 100
Source text: (§1) Plasmids, tissue culture and transfections. HIV-1 clade B molecular clone NL4-3 and cade C clones K3016, ZM247 were obtained from Dr. Christina Ochsenbauer, University of Alabama, USA. Both K3016 and ZM247 were constructed using viral strains from South Africa. The HIV-1 clade C molecular clone pindieC1 was obtained from Dr. Uday Ranga, JNCASR, India. This clone was constructed using an HIV strain from India. HEK-293T and TZM-bl cells were propagated in Dulbecco's modified Eagle's medium (DM4EM) containing 10% fetal bovine serum (FBS). HUT-R5 cells were propagated in RPM 1640 medium supplemented with 10% FBS. For transfections, HEK-293T cells were grown in six well plates to about 80% confluency. Cells were transfected using Lipofectamine 2000 (invitrogen, USA) following manufacturer's recommendations. For viral replication assays, HUT-R5 T-cells were transfected using DEAE dextran as described in Waheed, A. A., Ono, A., and Freed, E. O.; Methods for the study of HIV-1 assembly; Methods Mol. Biol. Clifton N.J. 485, 163-184 (2009).
(§2) Preparation of viral stocks. Virus stocks were prepared by transfecting HEK-293T cells with HIV-1 DNAs (3 μg). 24 h post-transfection, the culture medium was replaced with fresh DMEM and incubated for another 2 h. Compounds tested were maintained in the culture throughout transfection. The culture supernatant was centrifuged at 845×g for 3 min to remove cellular debris. The clarified supernatants were filtered (pore size 0.45 µm filter disc) to remove residual cellular contaminants. For determination of viral infectivity, the un-concentrated virus was used to infect TZM-bl cells. For the CA-SP1 accumulation assay, the virus was pelleted by ultra-centrifugation at 210,100×g for 1 h at 4° C. using SW41Ti rotor (Beckman Coulter, USA).
Viral infectivity assays. The virus stocks were normalized for p24 antigen using an HIV-1 p24 Antigen Capture kit (ABL, USA). Equal amounts of virus were used to infect TZM-bl cells (5×10^4/well) in the presence of 20 μg DEAE-dextran per mL in 24 well plate. Single-round infectivity assays were performed as previously described in Checkley, M. A. et al; Reevaluation of the Requirement for TIP47 in Human Immunodeficiency Virus Type 1 Envelope Glycoprotein Incorporation; J. Virol. 87, 3561-3570 (2013). The luciferase activity in the cell lysates was measured using the Steady-Glo luciferase assay kit (Promega, USA) following manufacturer's recommendations.

HIV-1 clade C ZM247 = assay: CA-SP1 accumulation assay (immunoblot), clade C ZM247; type: cell-based; details: head prints K3016
Experimental: Compound evaluation was performed against a panel of HIV-1 Clade C isolates K3016, pindieC1, and ZM247. The three isolates all contain the SP1-A7V. Clade B NL4-3 was included as the […] control.
as §1, §2
CA-SP1 accumulation assay. To measure accumulation of CA-SP1, immunoblot analysis of virus-associated proteins was performed. The virus pellet was resuspended in radioimmunoprecipitation assay (RIPA) buffer (50 mM Tris-HCl pH 8.0, 150 mM sodium chloride, 1.0% NP-40, 0.5% sodium deoxycholate, 0.1% SDS) containing 1×protease inhibitor cocktail (Roche, Germany). The viral lysates were subjected to SDS-polyacrylamide gel electrophoresis (15% gel). Proteins were transferred to polyvinylidene difluoride membranes and reacted with HIV-IgG obtained from the NIH AIDS Reagent Program (catalog no. 3957) followed by incubation with HRP-conjugated anti-human secondary antibodies (GE Healthcare, UK). The proteins were visualized by enhanced chemiluminescence (Pierce, USA) and the bands were quantified using ImageJ software (http://imagej.nih.gov/ij/).

[2] = test system: pNL4-3 SP1-V7A in MT-4 cells; assay: Antiviral assay in MT-4 cells (RT readout), SP1-V7A; type: cell-based, HIV-1; details: Human immunodeficiency virus 1, MT4, 96 h, read-out: Antiviral Assay IC50 (nM) SP1 V7A
Experimental: Cell culture, plasmids and transfections. The MT-4 T-cell line was maintained in RPMI-1640 medium supplemented with 10% (vol/vol) fetal bovine serum (FBS), 2 mM glutamine, 100 U/mL penicillin and 100 μg/mL streptomycin at 37° C. in a humidified 5% CO2 atmosphere. HeLa and 293T cells were maintained in Dulbecco's modified Eagle's medium (DMEM) supplemented with 5% (vol/vol) FBS, 2 mM glutamine, 100 U/mL penicillin and 100 μg/mL streptomycin. Molecular clones used in this study were WT pNL4-3 and the derivative encoding a Val-to-Ala mutation at SP1 residue 7, referred to as SP1-V7A. The MT-4 T-cell line was transfected the DEAE/dextran procedure; HeLa and 293T cells were transfected with linear polyethylenimine (L-PEI) or Lipofectamine 2000 (Invitrogen) as recommended by the supplier.
Antiviral assays. To produce HIV-1 stocks, 293T cells were transfected with WT pNL4-3 or the SP1-V7A derivative and culture supernatants were collected 24 h post transfection. RT-normalized virus supernatants were used to infect MT-4 cells at room temperature for 30 min. Cells were then cultured in the presence of serial dilutions of compounds. […] The IC50s in primary peripheral blood mononuclear cells (PBMCs) were calculated with a multi-clade panel of HIV-1 isolates by Southern Research Institute (Frederick, Md.). […]

C=C(C)[C@@H]1CC[C@]2(CCNCCN3CCS(=O)(=O)CC3)CC[C@]3(C)[C@H](CC[C@@H]4[C@@]5(C)CC[C@H](OC(=O)CC(C)(C)C(=O)O)C(C)(C)[C@@H]5CC[C@]43C)[C@@H]12 [Compound 51ee, (3β)-17-[[[2-[2-(1,1-Dioxothiomorpholin-4-yl)]Ethyl]Amino]Ethyl]-28-norlup-20(29)-en-3-ol, 3-(1-Hydrogen 2,2-Dimethylbutanedioate)]
CC50 at 4 days [1]: > 100 nM | % Relative Infectivity K3016 10 nM (HIV-1 clade C K3016): 32.0% | % Relative Infectivity K3016 100 nM (HIV-1 clade C K3016): 7.8% | % CA-SP1 Accumulation K3016 10 nM (HIV-1 clade C ZM247): 14.2% | % CA-SP1 Accumulation K3016 100 nM (HIV-1 clade C ZM247): 32.6%

C=C(C)[C@@H]1CC[C@]2(CCNC3CCN(CCO)CC3)CC[C@]3(C)[C@H](CC[C@@H]4[C@@]5(C)CC[C@H](OC(=O)CC(C)(C)CC(=O)O)C(C)(C)[C@@H]5CC[C@]43C)[C@@H]12 [Compound 51f, (3β)-17-[2-[[1-(2-Hydroxyethyl)piperidin-4-yl]amino]ethyl]-28-norlup-20(29)-en-3-ol, 3-(Hydrogen 3,3-Dimethylpentanedioate), Bis(trifluoroacetate) Salt]
IC50 [2]: 8 ± 2 nM

C=C(C)[C@@H]1CC[C@]2(CCNCCN3CCN(S(C)(=O)=O)CC3)CC[C@]3(C)[C@H](CC[C@@H]4[C@@]5(C)CC[C@H](OC(=O)CC(C)(C)C(=O)O)C(C)(C)[C@@H]5CC[C@]43C)[C@@H]12 [Compound 51ff, (3β)-17-[2-[[2-[4-(Methylsulfonyl)piperazin-1-yl]ethyl]amino]ethyl]-28-norlup-20(29)-en-3-ol, 3-(1-Hydrogen 2,2-Dimethylbutanedioate)]
CC50 at 4 days [1]: > 100 nM | % Relative Infectivity K3016 10 nM (HIV-1 clade C K3016): 43.3% | % Relative Infectivity K3016 100 nM (HIV-1 clade C K3016): 24.4% | % CA-SP1 Accumulation K3016 10 nM (HIV-1 clade C ZM247): 12.8% | % CA-SP1 Accumulation K3016 100 nM (HIV-1 clade C ZM247): 19.1%

C=C(C)[C@@H]1CC[C@]2(CCNCCN3CCN(Cc4ccccc4)CC3)CC[C@]3(C)[C@H](CC[C@@H]4[C@@]5(C)CC[C@H](OC(=O)CC(C)(C)C(=O)O)C(C)(C)[C@@H]5CC[C@]43C)[C@@H]12 [Compound 51hh, (3β)-17-[2-[[2-[4-(Phenylmethyl)piperazin-1-yl]ethyl]amino]ethyl]-28-norlup-20(29)-en-3-ol, 3-(1-Hydrogen 2,2-Dimethylbutanedioate)]
CC50 at 4 days [1]: > 100 nM | % Relative Infectivity K3016 10 nM (HIV-1 clade C K3016): 48.6% | % Relative Infectivity K3016 100 nM (HIV-1 clade C K3016): 32.3% | % CA-SP1 Accumulation K3016 10 nM (HIV-1 clade C ZM247): 7.0% | % CA-SP1 Accumulation K3016 100 nM (HIV-1 clade C ZM247): 27.2%
